From patent US11693005B2, “Methods for identifying treatments that reduce the actions of substances of abuse and addiction” (Florida Atlantic University Board of Trustees, priority 2018, dated 2023)
Entries after “also recorded” stand apart in the source; their conditions may differ.

Columns and labels:
mouse MBLAC1 = molecular target: T1, mouse MBLAC1 (Mus musculus, UniProt Q8BWY4); assay: Backscattering interferometry (BSI) binding of unlabeled Cef to lysates of TET-induced T-REx cells expressing mouse MBLAC1; conditions: 5 μM and 50 μM
T1 construct: mouse and human Mblac1 cDNAs were subcloned into pcDNA5/FRT/TO vector; expressed in transfected cells; cell lysate
T1 sequence (Q8BWY4 1-260): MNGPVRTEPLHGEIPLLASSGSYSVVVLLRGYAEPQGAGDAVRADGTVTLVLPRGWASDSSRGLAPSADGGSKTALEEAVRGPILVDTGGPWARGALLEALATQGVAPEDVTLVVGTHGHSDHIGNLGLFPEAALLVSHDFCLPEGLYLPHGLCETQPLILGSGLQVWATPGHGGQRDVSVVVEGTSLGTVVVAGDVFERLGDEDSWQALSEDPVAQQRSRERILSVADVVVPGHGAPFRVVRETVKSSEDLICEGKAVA
Method: (§1) HEK Flp-In T-REx-293 cells (T-REx) expressing mouse or human MBLAC1 proteins were generated per manufacturer's (ThermoFisher, Waltham, Mass., USA) instructions. Briefly, mouse and human Mblac1 cDNAs were subcloned into pcDNA5/FRT/TO vector and then co-transfected with pOG44 plasmid (encoding Flp recombinase) by lipid based transfection into Flp-In T-REx-293 cells using TransIT-LT1 (Mirus, Madison, Wis.). Stable integrants were isolated following selection with 100 μg/ml hygromycin. Expression of MBLAC1 protein was induced by addition of 1 μg/mL tetracycline (TET) to the media. […]
(§2) To assess the binding of unlabeled Cef with MBLAC1 in cell and tissue lysates, BSI was utilized. […] RI changes are quantified by comparing fringe shifts between test and reference samples.
(§3) Lysates for BSI contained Cef at concentrations of 0 μM, 5 μM, and 50 μM and concentrations of either 300 μg/mL (mouse cell lysates) or 100 μg/mL (human cell lysates and mouse brain lysates) protein. […] To obtain BSI signals, the sample with 0 μM Cef was injected into the channel in a stop-flow manner using a vacuum and allowed to reach temperature and pressure equilibrium (˜10 sec) at which point the phase value (BSI signal) was measured for 20 sec. Specific BSI signal was determined by subtracting Cef only signal from Cef-lysate signals. […]

[1] = tested on: MBLAC1 WT and MBLAC1 KO mice; assay: Effect of repeated Cef on cocaine-induced locomotion, open field; assay type: in vivo, mouse; conditions: Cef 200 mg/kg IP once daily 10 days, cocaine 10 mg/kg 24 h later
Method: Animals: All mice were used in accordance with protocols approved by the Florida Atlantic University Institutional Animal Care and Use Committee. Mice were group-housed on a 12 h/12 h light/dark cycle and given ad libitum access to food and water. Breeding was accomplished with mating of heterozygous males with heterozygous females. Male and female mice 11-13 weeks old at the start of the experiment were used in testing the effects of repeated ceftriaxone on response to cocaine in the open field assay. Data from males and females were combined.
Repeated Cef treatment/acute cocaine administration: MBLAC1 wild-type (WT, MBLAC1^+/+) and knockout mice (MBLAC1^−/−) were used in this experiment. Mice were injected IP once daily for 10 days with 200 mg/kg ceftriaxone (CEF) or saline. Twenty-four hours following the last CEF injection, mice were injected with 10 mg/kg cocaine or saline followed immediately by testing in open field activity chambers (Med Associates, Fairfax, Vt.) for 60 minutes. Locomotor activity was evaluated by photocells in the X, Y and Z dimensions. Horizontal beam breaks, vertical beam breaks, and repetitive movements were recorded and measures, including distance traveled, vertical rearing and stereotypic counts, were calculated. Data were analyzed in 5 min time bins within session, and for the first 30 min following cocaine injection. Data were analyzed by two-way ANOVA repeated measures, with time bin as the repeated measure, or by two-way ANOVA for 30 min cumulated data. At the end of behavior, mice were euthanized by CO2.
The methods were performed essentially as described in Tallarida et al. Neurosci Lett vol. 556, p. 155-159, 2013.

human MBLAC1 = molecular target: T2, human MBLAC1 (Homo sapiens, UniProt A4D2B0); assay: Backscattering interferometry (BSI) binding to lysates of TET-induced T-REx cells expressing human MBLAC1; conditions: 5 μM and 50 μM
T2 construct: mouse and human Mblac1 cDNAs were subcloned into pcDNA5/FRT/TO vector; expressed in transfected cells; cell lysate
T2 sequence (A4D2B0 1-266): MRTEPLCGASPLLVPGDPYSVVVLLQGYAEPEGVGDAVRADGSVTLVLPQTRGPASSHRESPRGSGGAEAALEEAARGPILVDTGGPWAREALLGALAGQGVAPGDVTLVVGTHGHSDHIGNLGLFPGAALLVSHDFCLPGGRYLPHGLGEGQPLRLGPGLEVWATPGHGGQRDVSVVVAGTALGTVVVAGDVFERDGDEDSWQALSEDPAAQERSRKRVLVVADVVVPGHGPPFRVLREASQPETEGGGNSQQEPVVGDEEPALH
Method: as §1, §2, §3

MBLAC1 [2] = assay: MBLAC1 pulldown with Cef-conjugated CN-Br Sepharose beads, competition by free Cef; assay type: binding
MBLAC1 [3] = molecular target: T3, MBLAC1 (Mus musculus, UniProt Q8BWY4); assay: BSI binding to mouse frontal cortex lysates, with and without MBLAC1 immunodepletion
T3 construct: from tissue; host or cells: mouse (C57BL/6J) frontal cortex, 100,000 x g supernatant
T3 sequence (Q8BWY4 1-260): T1 sequence (Q8BWY4 1-260)
Method: Wild type C57BL/6J mice (Jackson Labs, Bar Harbor, Me.) were rapidly decapitated and frontal cortex was dissected. Tissue was homogenized in ice cold 20 mM HEPES buffer (pH 7.4) using a Dounce homogenizer (Wheaton, Millville, N.J.), and then sonicated (F60 sonic dismembrator, Fisher Scientific, Waltham, Mass.) using 5, 1 sec pulses. Lysates were then centrifuged at 100,000×g for 30 min. Supernatants were collected, diluted with 2× lysis buffer (40 mM HEPES, 220 mM KCl, 20 mM NaCl, 4 mM MgCl, 10 mM KH2PO4, 500 μM ZnSO4) and protein concentration determined (BCA Protein Assay, ThermoFisher, Waltham, Mass.). […]
as §2, §3

CC(=O)OCC1=C(C(=O)O)N2C(=O)[C@@H](NC(=O)CCC[C@@H](N)C(=O)O)[C@H]2SC1 [CephC, cephalosporin C]
BSI binding signal (mouse MBLAC1): non-significant reduction in BSI signal; also recorded: a significant CephC BSI signal (FIG. 3D) was not seen

CO/N=C(\C(=O)N[C@@H]1C(=O)N2C(C(=O)O)=C(CSc3nc(=O)c(=O)[nH]n3C)CS[C@H]12)c1csc(N)n1 [Cef, ceftriaxone]
Effect on cocaine-induced locomotion (ambulatory distance, first 30 min) ([1]; MBLAC1 KO mice): no ability to attenuate cocaine actions | Effect on cocaine-induced locomotion (ambulatory distance, first 30 min) ([1]; MBLAC1 KO mice, listed as CEF): had no effect on the response to cocaine | Effect on cocaine-induced locomotion (ambulatory distance, first 30 min) ([1]; MBLAC1 WT mice): the locomotor activating effects of cocaine were lost | Effect on cocaine-induced locomotion (ambulatory distance, first 30 min) ([1]; MBLAC1 WT mice, listed as CEF): completely blocked the effects of cocaine | BSI binding signal (mouse MBLAC1): concentration-dependent, heat-sensitive BSI binding signals; also recorded: significant, dose-dependent BSI signals; also recorded: Significant dose-dependent BSI signals | BSI binding signal (human MBLAC1): concentration-dependent, heat-sensitive BSI binding signals; also recorded: significant, dose-dependent BSI signals | Mean reduction in MBLAC1 binding to immobilized Cef (MBLAC1 [2]; 50 μM free Cef preincubated with lysate, n=6): 52.4±9.3% | MBLAC1 capture by Cef-conjugated beads (MBLAC1 [2]; lysates preincubated with Cef 50 μM): significantly diminished MBLAC1 capture | BSI binding signal (MBLAC1 [3]; mouse frontal cortex lysate immunodepleted of MBLAC1 with antibody #80): eliminated Cef binding activity; also recorded: the Cef binding signal was abolished | BSI binding signal (MBLAC1 [3]; mouse frontal cortex lysate, 5 μM and 50 μM): shows binding signal with Cef
